Measured values reported in patent publication US4282232A, “Nitroimidazole radiosensitizers for hypoxic tumor cells and compositions thereof” (priority 1979, dated 1981).
Where two headings read alike, the source gives them in different places.

Tests used:
[1] = In vitro cytotoxicity (2 hour exposure); assay type: cell-based; settings: chinese hamster, v-79-753 b cells; for cytotoxicity at 2 h, 1000 µM: at 1mM; for MNTC at 2 h: read-out: In-vitro Cytotoxicity in cells: Nontoxic up to (concentration)
Protocol: (§1) Asynchronous monolayer cultures of Chinese hamster cells line V-79-753 B were employed in all the experiments. The monolayers were derived from exponentially-growing cultures. Methods of culturing and handling have been reported earlier by Cooke et al, Rad. Res. 65, 152 (1976). The plated cultures were rendered hypoxic in sealed dural containers capable of holding four petri dishes, by purging with nitrogen (oxygen-free grade) for one hour. Irradiation was carried out by using a Cobalt-60 source at a dose rate of approximately 310 rad/min according to the procedure described previously be Cooke et al, supra. A dose of 1395 rad was given to hypoxic cells in glass petri dishes in the presence of a given drug concentration (2000 cells/dish). Cell survival was estimated from unirradiated hypoxic cells exposed to the same drug concentration. Cultures were incubated for 6 days at 37° C. in an atmosphere of 5% CO2; the resulting colonies were fixed in absolute ethanol, stained with methylene blue and counted.
To determine toxicity in vitro, glass petri dishes containing approximately 200 cells/dish were exposed to a range of concentrations of each drug for 2 hours at room temperature (20° C.) in air or in hypoxia. Drug concentrations […] were employed.

mice of strain BDF1 [2] = test: in vivo; settings: intraperitoneal, 24 hours observation
Protocol: (§2) Neurotoxicity in mice was determined using mice of strain BDF1. This was carried out by (1) determining the LD50 of each compound in mice and (2) observing the animals for acute neurotoxic symptoms such as convulsions. The drugs were either solubilized or suspended in normal saline and administered intraperitoneally to groups of 10 mice.

hypoxic tumor cells = settings: cited from earlier work; for selectivity (tumor cells versus normal tissue cells): DNA incorporating drugs; for radiosensitizing activity (in words): in vitro and/or in vivo
mice = settings: cited from earlier work
humans = settings: cited from earlier work
[3] = system: hypoxic cells (Chinese hamster cells line V-79-753 B); test: Differential cytotoxicity of hypoxic cells; assay type: cell-based
Protocol: as §1
[…] Drug concentrations between 10 μM were employed.

Redox potential = assay type: physicochemical
mice of strain BDF1 [4] = settings: footnote *: P. W. Sheldon, et al, Br. J. Cancer, 35, 795, 800 (1977); 1440 min; cited from earlier work
[5] = system: Chinese hamster cells line V-79-753 B; test: Radiosensitization of hypoxic Chinese hamster cells (Cobalt-60 irradiation, enhancement ratio); assay type: cell-based; settings: 1395 rad Cobalt-60
Protocol: as §1

in vivo = settings: mouse, in vivo, ip
Protocol: as §2

[6] = Toxicity, general statements of the description
[7] = read-out: In-vitro Cytotoxicity in cells: inhibition

Q: Which results are given for O=[N+]([O-])c1nc2ccccc2n1CCN1CCCCC1 [B, 1-piperidinoethyl-2-nitrobenzimidazole]?
A: cytotoxicity at 2 h, 1000 µM [1, 7]: 50%; Convulsions in mice at LD50 doses (mice of strain BDF1 [2]): Yes; LD50 in mice (mice of strain BDF1 [2]): < 1 g

Q: With O=c1[nH]c(=O)n([C@H]2C[C@H](O)[C@@H](CO)O2)cc1F [FUdR, 5-Fluorodeoxyuridine] as the compound, how does the “selectivity (tumor cells versus normal tissue cells)” value (hypoxic tumor cells) read?
A: The value was “failed precisely because of their poor selectivity problem”.

Q: For O=c1[nH]c(=O)n([C@H]2C[C@H](O)[C@@H](CO)O2)cc1Br [BUdR, 5-Bromodeoxyuridine], which “selectivity (tumor cells versus normal tissue cells)” value (hypoxic tumor cells) is on record?
A: The value was “failed precisely because of their poor selectivity problem”.

Q: Which “serious side effects when administered orally” value (mice; oral, mice) does the source give for COCC(O)Cn1ccnc1[N+](=O)[O-] (stereo not drawn) [F, Misonidazole] here?
A: The value was “peripheral neuropathy and convulsions in mice”.

Q: And the “central nervous system (CNS) toxicity” value (humans; use in humans)?
A: Its value is “limiting factor for their use in humans”.

Q: What about the “Differential cytotoxicity of hypoxic cells” value (from here on “Differential cytotoxicity”) ([3]; exposure time not given) of the same compound?
A: The value was “yes”.

Q: What about the “Redox Potential” value (Redox potential) of the same compound?
A: The value was -0.389 V.

Q: And the “radiosensitizing activity (in words)” value (hypoxic tumor cells)?
A: The value was “effective in vivo”.

Q: Which “serious side effects when administered orally” value (mice; mouse, in vivo, po) does the source give for Cc1ncc([N+](=O)[O-])n1CCO [G, Metronidazole] here?
A: The value was “peripheral neuropathy and convulsions in mice”.

Q: And the LD50 in mice (mice of strain BDF1 [4])?
A: The LD50 in mice was 3500 mg/kg.

Q: And the “Radiosensitization (enhancement ratio at 1mM in chinese hamster cells)” value [5]?
A: The value was 1.5.

Q: And the “central nervous system (CNS) toxicity” value (humans; in vivo)?
A: The value was “limiting factor for their use in humans”.

Q: And the “Differential cytotoxicity” value ([3]; exposure time not given)?
A: The value was “yes”.

Q: And the “Redox Potential” value (Redox potential)?
A: Its value is -0.486 V.

Q: And the “radiosensitizing activity (in words)” value (hypoxic tumor cells; as worded, listed as Metronidazole)?
A: The value was “active both in vivo and in vitro”.

Q: What about the “radiosensitizing activity (in words)” value (hypoxic tumor cells; as worded, listed as metronidazole) of the same compound?
A: The value was “effective in vivo”.

Q: Which MNTC at 2 h [1] does the source give for O=[N+]([O-])c1nc2ccccc2n1CC[N+]1([O-])CCCCC1 [A, 1-(1'-oxido)piperidinoethyl-2-nitrobenzimidazole] here?
A: Its MNTC at 2 h is at least 10 mM.

Q: And the “Convulsions in mice at LD50 doses” value (mice of strain BDF1 [2])?
A: The value was “None”.

Q: What about the LD50 at 24 h (in vivo) of the same compound?
A: The LD50 at 24 h was about 5000 mg/kg.

Q: With CN(C)CCC(=O)c1ccc([N+](=O)[O-])cc1.Cl [NDPP, p-nitro-3-dimethylamino propiophenone HCl] as the compound, how does the “radiosensitizing activity (in words)” value (hypoxic tumor cells) read?
A: The value was “appeared promising in vitro”.

Q: What does the source list for O=[N+]([O-])c1nccn1CCN1CCCCC1 [D, 1-piperidinoethyl-2-nitroimidazole]?
A: cytotoxicity at 2 h, 1000 µM [1, 7]: 70%; Convulsions in mice at LD50 doses (mice of strain BDF1 [2]): yes; LD50 at 24 h (in vivo): 800 mg/kg; Radiosensitization (enhancement ratio at 1mM in chinese hamster cells) [5]: ~2.1

Q: Which cytotoxicity at 2 h, 2000 µM ([1]; at 2mM, read-out: In-vitro Cytotoxicity in cells: inhibition) does the source give for C[N+]1(CCn2ccnc2[N+](=O)[O-])CCCCC1 [E, 1-(1'-methiodide)-piperidinoethyl-2-nitroimidazole] here?
A: Its cytotoxicity at 2 h, 2000 µM is 30%.

Q: What about the “Convulsions in mice at LD50 doses” value (mice of strain BDF1 [2]) of the same compound?
A: The value was “yes”.

Q: And the LD50 at 24 h (in vivo)?
A: The LD50 at 24 h was 250 mg/kg.

Q: What about the “toxicity (in words)” value [6] of the same compound?
A: The value was “more toxic than the parent non-quaternized piperidino compound itself”.

Q: With O=[N+]([O-])c1nccn1CC[N+]1([O-])CCCCC1 [C, 1-(1'-oxido)piperidinoethyl-2-nitroimidazole] as the compound, how does the MNTC at 2 h [1] read?
A: The MNTC at 2 h was at least 20 mM.

Q: What about the “Convulsions in mice at LD50 doses” value (mice of strain BDF1 [2]) of the same compound?
A: Its value is “None”.

Q: And the LD50 at 24 h (in vivo)?
A: Its LD50 at 24 h is over 5000 mg/kg.

Q: And the “Radiosensitization (enhancement ratio at 1mM in chinese hamster cells)” value [5]?
A: Its value is 2.2.

Q: And the “Differential cytotoxicity” value ([3]; up to 4 hours)?
A: The value was “None”.

Q: What about the “Redox Potential” value (Redox potential) of the same compound?
A: Its value is -0.32 V.
